Like-named read-outs stand apart in the source and are kept apart here.
Columns and labels:
[1] = tested on: MCF-7 (breast adenocarcinoma) cells; experiment: growth inhibition of MCF-7 cells in culture; format: cell-based, human
Description: (§1) Human epithelial cancer cell lines were grown from frozen stocks originally obtained from the ATCC, in media commonly used for growing these cells in culture. For example, A549 cells (non-small cell lung adenocarcinoma) were cultured in Ham's F-12 medium, T84 cells (colon carcinoma) were cultured in a 1:1 mixture of F-12 and DMEM while MCF-7 (breast adenocarcinoma) and A427 (large cell lung carcinoma) cells were cultured in DMEM. The media were supplemented with 10% fetal bovine serum, penicillin (50 U/ml), streptomycin (50 micogram/ml) and fungizone (0.5 microgram/ml). OVCAR-3 cells (ovarian adenocarcinoma) were cultured in RPMI 1640 medium supplemented with 20% FBS and 10 microgram/ml insulin.
(§2) Cells were subcultured into 24-well plates and the cell number was monitored daily. When the cells were in log phase, the media was replaced with one containing the required drug concentration, and the cells were incubated for 72 h. The increase in cell numbers relative to control wells (without any drug) was determined after the incubation. Stock solutions of the drugs ([…]) were prepared in ethanol and stored at −20 deg. C. Etherlipid solutions (30 micromolar) in the appropriate media were prepared fresh on the day of the experiment and serially diluted to give the required concentrations. The final concentration of ethanol in all wells was 0.1% (v/v).
(§3) Gl50 values are given as the mean ± standard deviation; the Gl50 value from each experiment “n” was generated from three individual wells on two separate plates (six total wells); n=1 for compounds 3-6; n=2 for most cell lines treated with compound 2 ^an=3; ^bn=2; ^cn=6; ^dn=8.

[2] = tested on: OVCAR-3 cells (ovarian adenocarcinoma); experiment: growth inhibition of OVCAR-3 cells in culture; format: cell-based, human; settings: for growth: increase in cell numbers relative to control wells (control = 100): OVCAR-3, 72 h; for IC50: OVCAR-3 ovarian cancer cell line, read-out: Gl50 (the source's name)
Description: as §1, §2

[3] = tested on: A549 cells (non-small cell lung adenocarcinoma); experiment: growth inhibition of A549 cells in culture; format: cell-based, human
Description: as §1, §2, §3

[4] = tested on: T84 cells (colon carcinoma); experiment: growth inhibition of T84 cells in culture; format: cell-based, human
Description: as §1, §2

[5] = tested on: A427 (large cell lung carcinoma) cells; experiment: growth inhibition of A427 cells in culture; format: cell-based, human
Description: as §1, §2

HT29 cells = experiment: growth inhibition of HT29 cells in culture; format: cell-based; settings: mean ± standard deviation, read-out: Gl50 (concentration of lipid required to inhibit the growth of fifty percent of the cells in culture)
L1210/vmdr cells = experiment: growth inhibition of L1210/vmdr cells in culture; format: cell-based; settings: mean ± standard deviation, read-out: Gl50 (concentration of lipid required to inhibit the growth of fifty percent of the cells in culture)
Description: (§4) The Gl50 values for edelfosine (1), 2′-deoxy-β-D-arabinopyranosyl (2), 2′-deoxy-α-D-arabinopyranosyl (3), 2-O-methyl-β-D-glucopyranosyl (4), 2′-O-methyl-β-D-mannopyranosyl (5) and α-D-mannopyransoyl (6) on A-549, MCF-7, Lewis Lung, MCF-7/Adr (adriamycin-resistant), P388, P-388/Adr, L1210 and L1210/vmdr cells were determined and are set forth below (see Table 4) as the concentration (micromolar) of lipid required to inhibit the growth of fifty percent of the cells in culture.
as §3

L1210 cells = experiment: growth inhibition of L1210 cells in culture; format: cell-based; settings: mean ± standard deviation, read-out: Gl50 (concentration of lipid required to inhibit the growth of fifty percent of the cells in culture)
Description: as §4, §3

[6] = tested on: MCF-7/Adr (adriamycin-resistant) cells; experiment: growth inhibition of MCF7/adr cells in culture; format: cell-based, human; settings: mean ± standard deviation, read-out: Gl50 (concentration of lipid required to inhibit the growth of fifty percent of the cells in culture)
Description: as §4, §3

[7] = 72 h, 10% FBS-supplemented medium, read-out: Gl50 (concentration that inhibited cell growth by 50% in comparison to control cultures)
[8] = lipid concentration 6.5 μM, 72 h
[9] = lipid concentration 8.0 μM, 72 h
[10] = lipid concentration 10 μM, 72 h
[11] = lipid concentration 12.5 μM, 72 h
[12] = lipid concentration 15 μM, 72 h
[13] = lipid concentration 20 μM, 72 h
[14] = MCF7, mean ± standard deviation, read-out: Gl50 (concentration of lipid required to inhibit the growth of fifty percent of the cells in culture)
[15] = mean ± standard deviation, read-out: Gl50 (concentration of lipid required to inhibit the growth of fifty percent of the cells in culture)

## CCCCCCCCCCCCCCCCOC[C@H](CO[C@@H]1O[C@H](CO)[C@@H](O)[C@H](O)[C@H]1N)OC [A, 1-O-hexadecyl-2-O-methyl-3-O-(2′-amino-2′-deoxy-β-D-glucopyranosyl)-sn-glycerol]
[1]; MCF-7, 10% FBS-supplemented medium
  concentration cytotoxic to the cells: 16 µM
[1]; MCF-7, 72 h, 10% FBS-supplemented medium, read-out: Gl50 (concentration that inhibited cell growth by 50% in comparison to control cultures)
  IC50: 6.5 µM
[1]; MCF-7, lipid concentration 5 μM, 72 h
  proliferation: increase in cell numbers relative to control wells (control = 100): 60.60 ± 7.14
[1]; MCF-7, lipid concentration 6.5 μM, 72 h
  proliferation: increase in cell numbers relative to control wells (control = 100): 44.05 ± 11.70
[1]; MCF-7, lipid concentration 8.0 μM, 72 h
  proliferation: increase in cell numbers relative to control wells (control = 100): 31.46 ± 5.56
[1]; MCF-7, lipid concentration 10 μM, 72 h
  proliferation: increase in cell numbers relative to control wells (control = 100): 14.42 ± 8.39
[1]; MCF-7, lipid concentration 12.5 μM, 72 h
  proliferation: increase in cell numbers relative to control wells (control = 100): 3.90 ± 5.75
[1]; MCF-7, lipid concentration 15 μM, 72 h
  proliferation: increase in cell numbers relative to control wells (control = 100): 0
[1]; MCF-7, lipid concentration 20 μM, 72 h
  proliferation: increase in cell numbers relative to control wells (control = 100): 0
[2]; lipid concentration 5 μM
  growth: increase in cell numbers relative to control wells (control = 100): 42.9 ± 13.4
[2]; lipid concentration 10 μM
  growth: increase in cell numbers relative to control wells (control = 100): 7.7 ± 2.3
[2]; lipid concentration 15 μM
  growth: increase in cell numbers relative to control wells (control = 100): 0
[2]
  IC50: 12 µM
[3]; 10% FBS-supplemented medium
  concentration cytotoxic to the cells: 10.5 µM
[3]; [7]
  IC50: 8.3 µM
[3]; lipid concentration 5 μM, 72 h
  proliferation: increase in cell numbers relative to control wells (control = 100): 82.28 ± 4.66
[3]; [8]
  proliferation: increase in cell numbers relative to control wells (control = 100): 67.39 ± 6.18
[3]; [9]
  proliferation: increase in cell numbers relative to control wells (control = 100): 45.17 ± 12.06
[3]; [10]
  proliferation: increase in cell numbers relative to control wells (control = 100): 0
[3]; [11]
  proliferation: increase in cell numbers relative to control wells (control = 100): 0
[3]; [12]
  proliferation: increase in cell numbers relative to control wells (control = 100): 0
[3]; [13]
  proliferation: increase in cell numbers relative to control wells (control = 100): 0
[4]; 10% FBS-supplemented medium
  concentration cytotoxic to the cells: 20 µM
[4]; [7]
  IC50: 12.2 µM
[4]; lipid concentration 5 μM, 72 h
  proliferation: increase in cell numbers relative to control wells (control = 100): 89.71 ± 12.72
[4]; lipid concentration 7.5 μM, 72 h
  proliferation: increase in cell numbers relative to control wells (control = 100): 75.16 ± 10.79
[4]; [10]
  proliferation: increase in cell numbers relative to control wells (control = 100): 64.89 ± 11.56
[4]; [11]
  proliferation: increase in cell numbers relative to control wells (control = 100): 39.59 ± 9.50
[4]; [12]
  proliferation: increase in cell numbers relative to control wells (control = 100): 15.06 ± 7.23
[4]; [13]
  proliferation: increase in cell numbers relative to control wells (control = 100): 0
[5]; 10% FBS-supplemented medium
  concentration cytotoxic to the cells: 10.5 µM
[5]; [7]
  IC50: 7 µM
[5]; lipid concentration 5 μM, 72 h
  proliferation: increase in cell numbers relative to control wells (control = 100): 68.98 ± 9.25
[5]; [8]
  proliferation: increase in cell numbers relative to control wells (control = 100): 49.74 ± 5.16
[5]; [9]
  proliferation: increase in cell numbers relative to control wells (control = 100): 4.29 ± 5.16
[5]; [10]
  proliferation: increase in cell numbers relative to control wells (control = 100): 0
[5]; [11]
  proliferation: increase in cell numbers relative to control wells (control = 100): 0
[5]; [12]
  proliferation: increase in cell numbers relative to control wells (control = 100): 0
[5]; [13]
  proliferation: increase in cell numbers relative to control wells (control = 100): 0

## CCCCCCCCCCCCCCCCOC[C@H](CO[C@H]1O[C@H](CO)[C@@H](O)[C@H](O)[C@@H]1O)OC [compound 6, 1-O-Hexadecyl-2-O-methyl-3-O-(α-D-mannopyransoyl)-sn-glycerol]
HT29 cells
  IC50: 23.2 ± 0.85 µM
[1]; [14]
  IC50: 21.7 ± 0.57 µM
L1210/vmdr cells
  IC50: 18.9 µM
[3]; [15]
  IC50: 18.1 ± 0.14 µM
L1210 cells
  IC50: 16.2 ± 0.99 µM
[6]
  IC50: 23.3 ± 0.71 µM

## CCCCCCCCCCCCCCCCOC[C@H](CO[C@H]1O[C@H](CO)[C@@H](O)[C@H](O)[C@@H]1OC)OC [compound 5, 1-O-Hexadecyl-2-O-methyl-3-O-(2′-O-methyl-α-D-mannopyransoyl)-sn-glycerol]
HT29 cells
  IC50: 20 ± 0.28 µM
[1]; [14]
  IC50: 18.2 µM
L1210/vmdr cells
  IC50: 16.5 ± 1.13 µM
[3]; [15]
  IC50: 15.55 ± 0.07 µM
L1210 cells
  IC50: 15.5 ± 0.35 µM
[6]
  IC50: 18.55 ± 0.07 µM

## CCCCCCCC/C=C\CCCCCCCCCCCCOP(=O)([O-])OCC[N+](C)(C)C [E, erucylphosphocholine]
[2]; Homo sapiens
  IC50: > 30 µM
[2]; lipid concentration 5 μM
  growth: increase in cell numbers relative to control wells (control = 100): 104.0 ± 12.2
[2]; lipid concentration 10 μM
  growth: increase in cell numbers relative to control wells (control = 100): 102.3 ± 16.1
[2]; lipid concentration 15 μM
  growth: increase in cell numbers relative to control wells (control = 100): 98.6 ± 7.8
[2]; lipid concentration 20 μM
  growth: increase in cell numbers relative to control wells (control = 100): 90.2 ± 6.6
[2]; lipid concentration 30 μM
  growth: increase in cell numbers relative to control wells (control = 100): 60 ± 10.7

— patent publication US6573246B1, “Modified ether glyceroglycolipids” (The Liposome Company, Inc., priority 1995, dated 2003)
